Reference: patent US12077503B2, “Substituted cyclic amides and their use as herbicides” (FMC CORPORATION, priority 2015, dated 2024)

What was measured:
Type in all cases: in vivo
[1] = system: barnyardgrass (Echinochloa crus-galli); experiment: Test A preemergence; conditions: Echinochloa crus-galli, pre-emergence, 240 h, preemergence, 0 to 100 scale where 0 is no effect and 100 is complete control, read-out: Barnyardgrass plant response rating; for pest or weed control at 125 g/ha: 125 g ai/ha, visual injury rating, approximately 10 d; for pest or weed control at 500 g/ha: 500 g ai/ha
Summary of the method: (§1)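 Compounds were formulated in a non-phytotoxic solvent mixture with surfactant and applied as a preemergence directed soil spray after seeding, or sprayed postemergence over plants 2 to 10 cm tall at the one- to two-leaf stage. Evaluation after about 10 d compared treated with untreated controls, using a scale from 0 (no effect) to 100 (complete control).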

[2] = system: giant foxtail (Setaria faberii); experiment: Test A preemergence; conditions: Setaria faberi, pre-emergence, 240 h, preemergence, 0 to 100 scale where 0 is no effect and 100 is complete control, read-out: Foxtail, Giant plant response rating; for pest or weed control at 125 g/ha: 125 g ai/ha, visual injury rating, approximately 10 d; for pest or weed control at 500 g/ha: 500 g ai/ha
Summary of the method: as §1

[3] = system: Kochia (Kochia scoparia); experiment: Test A preemergence; conditions: Bassia scoparia, pre-emergence, 240 h, preemergence, 0 to 100 scale where 0 is no effect and 100 is complete control, read-out: Kochia plant response rating; for pest or weed control at 125 g/ha: 125 g ai/ha, visual injury rating, approximately 10 d; for pest or weed control at 500 g/ha: 500 g ai/ha
Summary of the method: as §1

[4] = system: ragweed (common ragweed, Ambrosia elatior); experiment: Test A preemergence; conditions: Ambrosia artemisiifolia, pre-emergence, 240 h, preemergence, 0 to 100 scale where 0 is no effect and 100 is complete control, read-out: Ragweed plant response rating; for pest or weed control at 125 g/ha: 125 g ai/ha, visual injury rating, approximately 10 d; for pest or weed control at 500 g/ha: 500 g ai/ha
Summary of the method: as §1

[5] = system: ryegrass, Italian (Italian ryegrass, Lolium multiflorum); experiment: Test A preemergence; conditions: Lolium multiflorum, pre-emergence, 240 h, preemergence, 0 to 100 scale where 0 is no effect and 100 is complete control, read-out: Ryegrass, Italian plant response rating; for pest or weed control at 125 g/ha: 125 g ai/ha, visual injury rating, approximately 10 d; for pest or weed control at 500 g/ha: 500 g ai/ha
Summary of the method: as §1

[6] = system: pigweed (Amaranthus retroflexus); experiment: Test A preemergence; conditions: Amaranthus retroflexus, pre-emergence, 240 h, preemergence, 0 to 100 scale where 0 is no effect and 100 is complete control, read-out: Pigweed plant response rating; for pest or weed control at 125 g/ha: 125 g ai/ha, visual injury rating, approximately 10 d; for pest or weed control at 500 g/ha: 500 g ai/ha
[7] = system: Galium (catchweed bedstraw, Galium aparine); experiment: Test A postemergence; conditions: Galium, post-emergence, 240 h, Postemergence; for pest or weed control at 125 g/ha: 125 g ai/ha, visual rating about 10 d after treatment, read-out: Galium plant response rating (0 to 100 scale); for pest or weed control at 500 g/ha: 500 g ai/ha, visual injury, 0 to 100 scale (0 no effect, 100 complete control), approx. 10 d, read-out: Plant response rating, Galium
Summary of the method: as §1

[8] = system: giant foxtail (Setaria faberii); experiment: Test A postemergence; conditions: Setaria faberi, post-emergence, 240 h, Postemergence; for pest or weed control at 125 g/ha: 125 g ai/ha, visual rating about 10 d after treatment, read-out: Foxtail, Giant plant response rating (0 to 100 scale); for pest or weed control at 500 g/ha: 500 g ai/ha, visual injury, 0 to 100 scale (0 no effect, 100 complete control), approx. 10 d, read-out: Plant response rating, Foxtail, Giant
Summary of the method: as §1

[9] = system: Kochia (Kochia scoparia); experiment: Test A postemergence; conditions: Bassia scoparia, post-emergence, 240 h, Postemergence; for pest or weed control at 125 g/ha: 125 g ai/ha, visual rating about 10 d after treatment, read-out: Kochia plant response rating (0 to 100 scale); for pest or weed control at 500 g/ha: 500 g ai/ha, visual injury, 0 to 100 scale (0 no effect, 100 complete control), approx. 10 d, read-out: Plant response rating, Kochia
Summary of the method: as §1

[10] = system: wheat (Triticum aestivum); experiment: Test A postemergence; conditions: Triticum aestivum, post-emergence, 240 h, Postemergence; for plant injury at 125 g/ha: 125 g ai/ha, visual rating about 10 d after treatment, read-out: Wheat plant response rating (0 to 100 scale); for plant injury at 500 g/ha: 500 g ai/ha, visual injury, 0 to 100 scale (0 no effect, 100 complete control), approx. 10 d, read-out: Plant response rating, Wheat
Summary of the method: as §1

[11] = system: pigweed (Amaranthus retroflexus); experiment: Test A postemergence; conditions: Amaranthus retroflexus, post-emergence, 240 h, Postemergence; for pest or weed control at 125 g/ha: 125 g ai/ha, visual rating about 10 d after treatment, read-out: Pigweed plant response rating (0 to 100 scale); for pest or weed control at 500 g/ha: 500 g ai/ha, visual injury, 0 to 100 scale (0 no effect, 100 complete control), approx. 10 d, read-out: Plant response rating, Pigweed
Summary of the method: as §1

[12] = system: barnyardgrass (Echinochloa crus-galli); experiment: Test B flooded paddy test; conditions: Echinochloa crus-galli, 250 g ai/ha, Flood; 0 to 100 scale where 0 is no effect and 100 is complete control; read-out: Barnyardgrass plant response rating
Summary of the method: (§2)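 2-leaf plants; pots flooded 3 cm over soil; cpd added to paddy water; depth held; greenhouse 13–15 d; visual rating vs controls, 0 = no effect, 100 = complete control.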

[13] = system: ducksalad (Heteranthera limosa); experiment: Test B flooded paddy test; conditions: Heteranthera limosa, 250 g ai/ha, Flood; 0 to 100 scale where 0 is no effect and 100 is complete control; read-out: Ducksalad plant response rating
Summary of the method: as §2

[14] = system: sedge, umbrella (small-flower umbrella sedge, Cyperus difformis); experiment: Test B flooded paddy test; conditions: Cyperus difformis, 250 g ai/ha, Flood; 0 to 100 scale where 0 is no effect and 100 is complete control; read-out: Sedge, Umbrella plant response rating
Summary of the method: as §2

[15] = system: rice (Oryra sativa); experiment: Test B flooded paddy test; conditions: Oryza sativa, 250 g ai/ha, Flood; 0 to 100 scale where 0 is no effect and 100 is complete control; read-out: Rice plant response rating
Summary of the method: as §2

Structure (SMILES)	pest or weed control at 125 g/ha [1] [%]	pest or weed control at 500 g/ha [1] [%]	pest or weed control at 125 g/ha [2] [%]	pest or weed control at 500 g/ha [2] [%]	pest or weed control at 125 g/ha [3] [%]	pest or weed control at 500 g/ha [3] [%]	pest or weed control at 125 g/ha [4] [%]	pest or weed control at 500 g/ha [4] [%]	pest or weed control at 125 g/ha [5] [%]	pest or weed control at 500 g/ha [5] [%]	pest or weed control at 125 g/ha [6] [%]	pest or weed control at 500 g/ha [6] [%]	pest or weed control at 125 g/ha [7] [%]	pest or weed control at 500 g/ha [7] [%]	pest or weed control at 125 g/ha [8] [%]	pest or weed control at 500 g/ha [8] [%]	pest or weed control at 125 g/ha [9] [%]	pest or weed control at 500 g/ha [9] [%]	plant injury at 125 g/ha [10] [%]	plant injury at 500 g/ha [10] [%]	further results
Cc1cc(F)cc([C@H]2CNC(=O)[C@@H]2C(=O)Nc2cccc(F)c2C)c1 [Compound 1308]	90	90	90	90	0	50	0	70	0	0	0	20	30	50	20	80	0	0	20	40	pest or weed control at 125 g/ha [11]: 0%; pest or weed control at 500 g/ha [11]: 0%; pest or weed control at 250 g/ha [12]: 65%; pest or weed control at 250 g/ha [13]: 100%; pest or weed control at 250 g/ha [14]: 0%; pest or weed control at 250 g/ha [15]: 40%
Cc1nc([C@H]2CN(C)C(=O)[C@@H]2C(=O)Nc2ccccc2F)cs1 [Compound 1280]	0	50	0	80	0	0	0	0	0	0	0	30	0	0	0	30	0	0	0	0	pest or weed control at 125 g/ha [11]: 0%; pest or weed control at 500 g/ha [11]: 0%; pest or weed control at 250 g/ha [12]: 0%; pest or weed control at 250 g/ha [13]: 0%; pest or weed control at 250 g/ha [14]: 0%; pest or weed control at 250 g/ha [15]: 0%
